# Measured values reported in PubChem BioAssay (NCI).
#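 Grown in 96-well plates, cells were treated for 48 hours with each compound at five concentrations. Insufficient inhibition: endpoint recorded as highest concentration tested. TGI denotes the concentration required for complete inhibition of growth.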
# Assays:
# Test in all cases: NCI-60 cell line screen, 48 h
# K-562 leukemia = tested on: K-562 leukemia
# MDA-MB-231 breast = tested on: MDA-MB-231 breast
# SR leukemia = tested on: SR leukemia
# SF-295 CNS = tested on: SF-295 CNS
# HCT-116 colon = tested on: HCT-116 colon
# SF-268 CNS = tested on: SF-268 CNS
# LOX IMVI melanoma = tested on: LOX IMVI melanoma
# SN12C renal = tested on: SN12C renal
# A549 NSCLC = tested on: A549 NSCLC
# CCRF-CEM leukemia = tested on: CCRF-CEM leukemia
# COLO 205 colon = tested on: COLO 205 colon
# UACC-257 melanoma = tested on: UACC-257 melanoma
# SW-620 colon = tested on: SW-620 colon
# HT29 colon = tested on: HT29 colon
# UO-31 renal = tested on: UO-31 renal
# M14 melanoma = tested on: M14 melanoma
# BT-549 breast = tested on: BT-549 breast
# MCF7 breast = tested on: MCF7 breast
# IGROV1 ovarian = tested on: IGROV1 ovarian
# SK-MEL-5 melanoma = tested on: SK-MEL-5 melanoma
# SNB-75 CNS = tested on: SNB-75 CNS
# 786-0 renal = tested on: 786-0 renal
# HL-60(TB) leukemia = tested on: HL-60(TB) leukemia
# NCI-H23 lung = tested on: NCI-H23 lung
# UACC-62 melanoma = tested on: UACC-62 melanoma
# SK-OV-3 ovarian = tested on: SK-OV-3 ovarian
# HCC-2998 colon = tested on: HCC-2998 colon
# RPMI-8226 leukemia = tested on: RPMI-8226 leukemia
# NCI-H522 lung = tested on: NCI-H522 lung
# A498 renal = tested on: A498 renal
# NCI-H460 lung = tested on: NCI-H460 lung
# MOLT-4 leukemia = tested on: MOLT-4 leukemia
# MDA-MB-435 = tested on: MDA-MB-435
# ACHN renal = tested on: ACHN renal
# HOP-62 NSCLC = tested on: HOP-62 NSCLC
# HCT-15 colon = tested on: HCT-15 colon
# DU-145 prostate = tested on: DU-145 prostate
# SK-MEL-28 melanoma = tested on: SK-MEL-28 melanoma
# TK-10 renal = tested on: TK-10 renal
# MALME-3M melanoma = tested on: MALME-3M melanoma
# NCI-H226 lung = tested on: NCI-H226 lung
# SNB-19 CNS = tested on: SNB-19 CNS
# KM12 colon = tested on: KM12 colon
# HS 578T breast = tested on: HS 578T breast
# PC-3 prostate = tested on: PC-3 prostate
# T-47D breast = tested on: T-47D breast
# MDA-N = tested on: MDA-N
# CAKI-1 renal = tested on: CAKI-1 renal
# OVCAR-8 ovarian = tested on: OVCAR-8 ovarian
# SF-539 CNS = tested on: SF-539 CNS
# EKVX NSCLC = tested on: EKVX NSCLC
# OVCAR-5 ovarian = tested on: OVCAR-5 ovarian
# OVCAR-3 ovarian = tested on: OVCAR-3 ovarian
# OVCAR-4 ovarian = tested on: OVCAR-4 ovarian
# HOP-92 NSCLC = tested on: HOP-92 NSCLC
# NCI/ADR-RES ovarian = tested on: NCI/ADR-RES ovarian
# SK-MEL-2 melanoma = tested on: SK-MEL-2 melanoma
# U251 CNS = tested on: U251 CNS
compound,measurement,setting,value
COc1cc(OC)c2c(c1-c1ccc(C)cc1)CC(C)N(Cc1ccccc1)[C@H]2C (stereo partly specified),TGI,K-562 leukemia,> 100 µM
same,TGI,MDA-MB-231 breast,> 100 µM
same,TGI,SR leukemia,> 100 µM
same,TGI,SF-295 CNS,> 100 µM
same,TGI,HCT-116 colon,> 100 µM
same,TGI,SF-268 CNS,> 100 µM
same,TGI,LOX IMVI melanoma,> 100 µM
same,TGI,SN12C renal,> 100 µM
same,TGI,A549 NSCLC,> 100 µM
same,TGI,CCRF-CEM leukemia,> 100 µM
same,TGI,COLO 205 colon,> 100 µM
same,TGI,UACC-257 melanoma,68.5 µM
same,TGI,SW-620 colon,> 100 µM
same,TGI,HT29 colon,69.7 µM
same,TGI,UO-31 renal,> 100 µM
same,TGI,M14 melanoma,> 100 µM
same,TGI,BT-549 breast,> 100 µM
same,TGI,MCF7 breast,> 100 µM
same,TGI,IGROV1 ovarian,> 100 µM
same,TGI,SK-MEL-5 melanoma,51.5 µM
same,TGI,SNB-75 CNS,> 100 µM
same,TGI,786-0 renal,> 100 µM
same,TGI,HL-60(TB) leukemia,43.4 µM
same,TGI,NCI-H23 lung,> 100 µM
same,TGI,UACC-62 melanoma,> 100 µM
same,TGI,SK-OV-3 ovarian,> 100 µM
same,TGI,HCC-2998 colon,> 100 µM
same,TGI,RPMI-8226 leukemia,52.3 µM
same,TGI,NCI-H522 lung,72.8 µM
same,TGI,A498 renal,> 100 µM
same,TGI,NCI-H460 lung,> 100 µM
same,TGI,MOLT-4 leukemia,> 100 µM
same,TGI,MDA-MB-435,> 100 µM
same,TGI,ACHN renal,> 100 µM
same,TGI,HOP-62 NSCLC,> 100 µM
same,TGI,HCT-15 colon,> 100 µM
same,TGI,DU-145 prostate,> 100 µM
same,TGI,SK-MEL-28 melanoma,> 100 µM
same,TGI,TK-10 renal,> 100 µM
same,TGI,MALME-3M melanoma,53.2 µM
same,TGI,NCI-H226 lung,> 100 µM
same,TGI,SNB-19 CNS,> 100 µM
same,TGI,KM12 colon,> 100 µM
same,TGI,HS 578T breast,67.3 µM
same,TGI,PC-3 prostate,> 100 µM
same,TGI,T-47D breast,> 100 µM
same,TGI,MDA-N,> 100 µM
same,TGI,CAKI-1 renal,> 100 µM
same,TGI,OVCAR-8 ovarian,> 100 µM
same,TGI,SF-539 CNS,> 100 µM
same,TGI,EKVX NSCLC,> 100 µM
Cc1cnc(-n2c(C)nc3cc(Cl)ccc3c2=O)s1,TGI,K-562 leukemia,> 100 µM
same,TGI,MDA-MB-231 breast,> 100 µM
same,TGI,OVCAR-5 ovarian,> 100 µM
same,TGI,SF-295 CNS,> 100 µM
same,TGI,HCT-116 colon,65.6 µM
same,TGI,SF-268 CNS,> 100 µM
same,TGI,OVCAR-3 ovarian,> 100 µM
same,TGI,LOX IMVI melanoma,> 100 µM
same,TGI,SN12C renal,> 100 µM
same,TGI,A549 NSCLC,> 100 µM
same,TGI,CCRF-CEM leukemia,> 100 µM
same,TGI,COLO 205 colon,40.2 µM
same,TGI,UACC-257 melanoma,99.6 µM
same,TGI,SW-620 colon,> 100 µM
same,TGI,HT29 colon,> 100 µM
same,TGI,UO-31 renal,4.13 µM
same,TGI,OVCAR-4 ovarian,> 100 µM
same,TGI,HOP-92 NSCLC,> 100 µM
same,TGI,M14 melanoma,> 100 µM
same,TGI,BT-549 breast,> 100 µM
same,TGI,MCF7 breast,56.5 µM
same,TGI,IGROV1 ovarian,> 100 µM
same,TGI,SK-MEL-5 melanoma,34 µM
same,TGI,SNB-75 CNS,70.4 µM
same,TGI,786-0 renal,> 100 µM
same,TGI,HL-60(TB) leukemia,> 100 µM
same,TGI,NCI-H23 lung,97.7 µM
same,TGI,UACC-62 melanoma,68.1 µM
same,TGI,SK-OV-3 ovarian,> 100 µM
same,TGI,HCC-2998 colon,96.1 µM
same,TGI,NCI-H522 lung,92.1 µM
same,TGI,NCI/ADR-RES ovarian,94.5 µM
same,TGI,SK-MEL-2 melanoma,> 100 µM
same,TGI,A498 renal,61.7 µM
same,TGI,U251 CNS,> 100 µM
same,TGI,NCI-H460 lung,> 100 µM
same,TGI,MOLT-4 leukemia,> 100 µM
same,TGI,MDA-MB-435,> 100 µM
same,TGI,ACHN renal,90.9 µM
same,TGI,HOP-62 NSCLC,> 100 µM
same,TGI,HCT-15 colon,> 100 µM
same,TGI,DU-145 prostate,66.4 µM
same,TGI,SK-MEL-28 melanoma,> 100 µM
same,TGI,TK-10 renal,> 100 µM
same,TGI,MALME-3M melanoma,> 100 µM
same,TGI,NCI-H226 lung,93.8 µM
same,TGI,SNB-19 CNS,> 100 µM
same,TGI,KM12 colon,> 100 µM
same,TGI,HS 578T breast,> 100 µM
same,TGI,PC-3 prostate,> 100 µM
same,TGI,T-47D breast,68.9 µM
same,TGI,MDA-N,56.8 µM
same,TGI,CAKI-1 renal,> 100 µM
same,TGI,OVCAR-8 ovarian,> 100 µM
same,TGI,SF-539 CNS,55.3 µM
same,TGI,EKVX NSCLC,35.8 µM
c1ccc2c(c1)SC1=C(SC(=C3SC4=C(S3)Sc3ccccc3S4)S1)S2,TGI,MDA-MB-231 breast,> 100 µM
same,TGI,OVCAR-5 ovarian,> 100 µM
same,TGI,SF-295 CNS,> 100 µM
same,TGI,HCT-116 colon,> 100 µM
same,TGI,SF-268 CNS,> 100 µM
same,TGI,OVCAR-3 ovarian,> 100 µM
same,TGI,LOX IMVI melanoma,> 100 µM
same,TGI,SN12C renal,> 100 µM
same,TGI,A549 NSCLC,> 100 µM
same,TGI,CCRF-CEM leukemia,> 100 µM
same,TGI,COLO 205 colon,> 100 µM
same,TGI,UACC-257 melanoma,> 100 µM
same,TGI,SW-620 colon,> 100 µM
same,TGI,HT29 colon,> 100 µM
same,TGI,UO-31 renal,> 100 µM
same,TGI,OVCAR-4 ovarian,> 100 µM
same,TGI,HOP-92 NSCLC,> 100 µM
same,TGI,M14 melanoma,> 100 µM
same,TGI,BT-549 breast,> 100 µM
same,TGI,MCF7 breast,> 100 µM
same,TGI,IGROV1 ovarian,> 100 µM
same,TGI,SK-MEL-5 melanoma,> 100 µM
same,TGI,SNB-75 CNS,> 100 µM
same,TGI,786-0 renal,> 100 µM
same,TGI,HL-60(TB) leukemia,> 100 µM
same,TGI,NCI-H23 lung,> 100 µM
same,TGI,UACC-62 melanoma,> 100 µM
same,TGI,HCC-2998 colon,> 100 µM
same,TGI,RPMI-8226 leukemia,> 100 µM
same,TGI,NCI-H522 lung,> 100 µM
same,TGI,NCI/ADR-RES ovarian,> 100 µM
same,TGI,SK-MEL-2 melanoma,> 100 µM
same,TGI,U251 CNS,> 100 µM
same,TGI,NCI-H460 lung,> 100 µM
same,TGI,MOLT-4 leukemia,> 100 µM
same,TGI,MDA-MB-435,> 100 µM
same,TGI,ACHN renal,> 100 µM
same,TGI,HOP-62 NSCLC,> 100 µM
same,TGI,HCT-15 colon,> 100 µM
same,TGI,DU-145 prostate,> 100 µM
same,TGI,SK-MEL-28 melanoma,> 100 µM
same,TGI,TK-10 renal,> 100 µM
same,TGI,MALME-3M melanoma,> 100 µM
same,TGI,NCI-H226 lung,> 100 µM
same,TGI,SNB-19 CNS,> 100 µM
same,TGI,KM12 colon,> 100 µM
same,TGI,HS 578T breast,> 100 µM
same,TGI,PC-3 prostate,> 100 µM
same,TGI,T-47D breast,> 100 µM
same,TGI,MDA-N,> 100 µM
same,TGI,CAKI-1 renal,> 100 µM
same,TGI,OVCAR-8 ovarian,> 100 µM
same,TGI,SF-539 CNS,> 100 µM
same,TGI,EKVX NSCLC,> 100 µM
